Source: patent US12630534B2 (TAKEDA PHARMACEUTICAL COMPANY LIMITED, priority 2020, dated 2026)

Biological target: T1, human GPR139 (Homo sapiens, UniProt Q6DWJ6)
T1 construct: expressed in transfected cells; host or cells: CHO-TREx (Life Technologies) cells, expression induced with doxycycline
T1 sequence (Q6DWJ6 1-353): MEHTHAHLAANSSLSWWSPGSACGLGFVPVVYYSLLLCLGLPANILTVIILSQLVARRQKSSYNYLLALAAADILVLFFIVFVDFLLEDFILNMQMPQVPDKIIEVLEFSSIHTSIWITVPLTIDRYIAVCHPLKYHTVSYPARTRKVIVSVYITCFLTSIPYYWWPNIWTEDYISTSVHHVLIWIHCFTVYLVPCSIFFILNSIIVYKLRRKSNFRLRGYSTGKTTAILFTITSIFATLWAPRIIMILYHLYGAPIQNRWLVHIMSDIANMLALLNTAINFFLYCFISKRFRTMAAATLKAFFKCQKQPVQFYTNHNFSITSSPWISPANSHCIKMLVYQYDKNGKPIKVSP
Assay: Inhibition rate of the amount of IP1 in GPR139-expressed CHO cells (inverse agonist assay, Test Example 2)
Format: cell-based
Conditions: relative value, inhibition rate of Example Compound 2 in Test Example 1 defined as 100%; for inhibition at 30 µM: CHO
How it was run: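 IP1 accumulation read by IP-One HTRF after 40 min compound exposure at 37° C in stimulation buffer, 2000 cells/well, GPR139 expression induced the day before with doxycycline. Results given as relative inhibition rate, normalised to a reference compound set at […].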

inhibition at 30 µM	SMILES	other results
98%	CCn1cc(Cn2c(C)cn(-c3cc(N4CCO[C@H](C)C4)cc(C4CC4)c3F)c2=O)cn1 [Example 140, 1-{3-cyclopropyl-2-fluoro-5-[(2R)-2-methylmorpholin-4-yl]phenyl}-3-[(1-ethyl-1H-pyrazol-4-yl)methyl]-4-methyl-1,3-dihydro-2H-imidazol-2-one]	
101%	CCn1cc(Cn2c(C)nn(-c3cc(C(F)(F)F)cc(N4CCC(F)(F)CC4)n3)c2=O)cn1 [Example 141]	
100%	Cc1nn(-c2cc(C(F)(F)F)cc(N3CCC(F)(F)CC3)n2)c(=O)n1Cc1cnn(C(C)C)c1 [Example 142, 2-[6-(4,4-difluoropiperidin-1-yl)-4-(trifluoromethyl)pyridin-2-yl]-5-methyl-4-{[1-(propan-2-yl)-1H-pyrazol-4-yl]methyl}-2,4-dihydro-3H-1,2,4-triazol-3-one]	
101%	CCn1cc(Cn2c(C(F)(F)F)cn(-c3cc(N4CCO[C@H](C)C4)cc(C4CC4(F)F)c3F)c2=O)cn1 (stereo partly drawn) [Example 143, 1-{3-(2,2-difluorocyclopropyl)-2-fluoro-5-[(2R)-2-methylmorpholin-4-yl]phenyl}-3-[(1-ethyl-1H-pyrazol-4-yl)methyl]-4-(trifluoromethyl)-1,3-dihydro-2H-imidazol-2-one]	
	CCn1cc(Cn2ccn(-c3cc(-c4ccc(F)cc4)cc(C4CC4(F)F)c3F)c2=O)cn1 (centres unmarked) [Example 144, 1-[5-(2,2-difluorocyclopropyl)-4,4′-difluoro[1,1′-biphenyl]-3-yl]-3-[(1-ethyl-1H-pyrazol-4-yl)methyl]-1,3-dihydro-2H-imidazol-2-one]	Inhibition Rate at 30 μM (30 µM): 101%
	CCn1cc(Cn2ccn(-c3cc(-c4ccc(F)cc4)cc(C4CC4(F)F)c3F)c2=O)cn1 (centres unmarked) [Example 145, 1-[5-(2,2-difluorocyclopropyl)-4,4′-difluoro[1,1′-biphenyl]-3-yl]-3-[(1-ethyl-1H-pyrazol-4-yl)methyl]-1,3-dihydro-2H-imidazol-2-one]	Inhibition Rate at 30 μM (30 µM): 102%
103%	CCn1cc(Cn2ccn(-c3cc(N4CCOC(C)(C)C4)cc(Br)c3F)c2=O)cn1 [Example 146, 1-[3-bromo-5-(2,2-dimethylmorpholin-4-yl)-2-fluorophenyl]-3-[(1-ethyl-1H-pyrazol-4-yl)methyl]-1,3-dihydro-2H-imidazol-2-one]	
100%	CCn1cc(Cn2cc(C)n(-c3cc(C4CC4)cc(N4CCOC(C)(C)C4)c3)c2=O)cn1 [Example 147, 3-[3-cyclopropyl-5-(2,2-dimethylmorpholin-4-yl)phenyl]-1-[(1-ethyl-1H-pyrazol-4-yl)methyl]-4-methyl-1,3-dihydro-2H-imidazol-2-one]	
101%	Cc1cn(Cc2cnn(C(C)C)c2)c(=O)n1-c1cc(C(F)(F)F)cc(OC[C@@H]2CCCO2)n1 [Example 148, 4-methyl-3-[6-{[(2S)-oxolan-2-yl]methoxy}-4-(trifluoromethyl)pyridin-2-yl]-1-{[1-(propan-2-yl)-1H-pyrazol-4-yl]methyl}-1,3-dihydro-2H-imidazol-2-one]	
101%	CCn1cc(Cn2cc(C)n(-c3cc(C(F)(F)F)c(F)c(N4CCO[C@H](C)C4)n3)c2=O)cn1 [Example 149, 1-[(1-ethyl-1H-pyrazol-4-yl)methyl]-3-{5-fluoro-6-[(2R)-2-methylmorpholin-4-yl]-4-(trifluoromethyl)pyridin-2-yl}-4-methyl-1,3-dihydro-2H-imidazol-2-one]	
101%	CCn1cc(Cn2c(C)c(C)n(-c3cc(C(F)(F)F)c(F)c(N4CCO[C@H](C)C4)n3)c2=O)cn1 [Example 150, 1-[(1-ethyl-1H-pyrazol-4-yl)methyl]-3-{5-fluoro-6-[(2R)-2-methylmorpholin-4-yl]-4-(trifluoromethyl)pyridin-2-yl}-4,5-dimethyl-1,3-dihydro-2H-imidazol-2-one]	
98%	CCn1cc(Cn2cnn(-c3cc(OCC4CC(F)(F)C4)cc(C(F)(F)F)c3F)c2=O)cn1 [Example 151, 2-{5-[(3,3-difluorocyclobutyl)methoxy]-2-fluoro-3-(trifluoromethyl)phenyl}-4-[(1-ethyl-1H-pyrazol-4-yl)methyl]-2,4-dihydro-3H-1,2,4-triazol-3-one]	
98%	CCn1cc(Cn2ccn(-c3cc(N4CCC(F)(F)CC4)cc(N4CCC(F)(F)CC4)c3F)c2=O)cn1 [Example 152, 1-[3,5-bis(4,4-difluoropiperidin-1-yl)-2-fluorophenyl]-3-[(1-ethyl-1H-pyrazol-4-yl)methyl]-1,3-dihydro-2H-imidazol-2-one]	
100%	CCn1cc(Cn2ccn(-c3cc(N4CCO[C@H](C)C4)cc(OC(F)(F)F)c3F)c2=O)cn1 [Example 153, 1-[(1-ethyl-1H-pyrazol-4-yl)methyl]-3-{2-fluoro-5-[(2R)-2-methylmorpholin-4-yl]-3-(trifluoromethoxy)phenyl}-1,3-dihydro-2H-imidazol-2-one]	
98%	CCn1cc(Cn2c(C)nn(-c3cc(C(F)(F)F)c(F)c(N4CCC(F)(F)CC4)n3)c2=O)cn1 [Example 154, 2-[6-(4,4-difluoropiperidin-1-yl)-5-fluoro-4-(trifluoromethyl)pyridin-2-yl]-4-[(1-ethyl-1H-pyrazol-4-yl)methyl]-5-methyl-2,4-dihydro-3H-1,2,4-triazol-3-one]	
101%	CCn1cc(Cn2c(Cl)nn(-c3cc(N4CCO[C@H](C)C4)cc(C(F)(F)F)c3F)c2=O)cn1 [Example 155, 5-chloro-4-[(1-ethyl-1H-pyrazol-4-yl)methyl]-2-{2-fluoro-5-[(2R)-2-methylmorpholin-4-yl]-3-(trifluoromethyl)phenyl}-2,4-dihydro-3H-1,2,4-triazol-3-one]	
98%	CCn1cc(Cn2ccn(-c3cc(N4CCC(F)(F)CC4)cc(C4CC4(F)F)c3F)c2=O)cn1 (centres unmarked) [Example 156, 1-[3-(2,2-difluorocyclopropyl)-5-(4,4-difluoropiperidin-1-yl)-2-fluorophenyl]-3-[(1-ethyl-1H-pyrazol-4-yl)methyl]-1,3-dihydro-2H-imidazol-2-one]	
101%	CCc1cn(Cc2cnn(CC)c2)c(=O)n1-c1cc(C(F)(F)F)cc(N2CCO[C@H](C)C2)n1 [Example 157, 4-ethyl-1-[(1-ethyl-1H-pyrazol-4-yl)methyl]-3-{6-[(2R)-2-methylmorpholin-4-yl]-4-(trifluoromethyl)pyridin-2-yl}-1,3-dihydro-2H-imidazol-2-one]	
	CCn1cc(Cn2ccn(-c3cc(N4CCC(F)(F)CC4)cc(C4CC4(F)F)c3F)c2=O)cn1 (centres unmarked) [Example 158, 1-[3-(2,2-difluorocyclopropyl)-5-(4,4-difluoropiperidin-1-yl)-2-fluorophenyl]-3-[(1-ethyl-1H-pyrazol-4-yl)methyl]-1,3-dihydro-2H-imidazol-2-one]	Inhibition Rate at 30 μM: 98%
99%	Cc1nn(-c2cc(N3CCO[C@H](C)C3)cc(OC(F)(F)F)c2F)c(=O)n1Cc1cnn(C(C)C)c1 [Example 159, 2-{2-fluoro-5-[(2R)-2-methylmorpholin-4-yl]-3-(trifluoromethoxy)phenyl}-5-methyl-4-{[1-(propan-2-yl)-1H-pyrazol-4-yl]methyl}-2,4-dihydro-3H-1,2,4-triazol-3-one]	
98%	CCn1cc(Cn2cc(C)n(-c3cc(C4CC4)c(F)c(N4CCO[C@H](C)C4)c3)c2=O)cn1 [Example 160, 3-{3-cyclopropyl-4-fluoro-5-[(2R)-2-methylmorpholin-4-yl]phenyl}-1-[(1-ethyl-1H-pyrazol-4-yl)methyl]-4-methyl-1,3-dihydro-2H-imidazol-2-one]	
100%	CCn1cc(Cn2c(C)nn(-c3cc(N4CCC(F)(F)CC4)cc(C(F)(F)F)c3C)c2=O)cn1 [Example 161, 2-[5-(4,4-difluoropiperidin-1-yl)-2-methyl-3-(trifluoromethyl)phenyl]-4-[(1-ethyl-1H-pyrazol-4-yl)methyl]-5-methyl-2,4-dihydro-3H-1,2,4-triazol-3-one]	
101%	CCn1cc(Cn2c(C)c(C)n(-c3cc(C4CC4)cc(N4CCO[C@H](C)C4)n3)c2=O)cn1 [Example 162, 1-{4-cyclopropyl-6-[(2R)-2-methylmorpholin-4-yl]pyridin-2-yl}-3-[(1-ethyl-1H-pyrazol-4-yl)methyl]-4,5-dimethyl-1,3-dihydro-2H-imidazol-2-one]	
96%	CCn1cc(Cn2c(C)c(C)n(-c3cccc(N4CCO[C@H](C)C4)n3)c2=O)cn1 [Example 163, 1-[(1-ethyl-1H-pyrazol-4-yl)methyl]-4,5-dimethyl-3-{6-[(2R)-2-methylmorpholin-4-yl]pyridin-2-yl}-1,3-dihydro-2H-imidazol-2-one]	
97%	CCn1cc(Cn2c(C)cn(-c3cc(N4CCOC(C)(C)C4)cc(C4CC4)c3F)c2=O)cn1 [Example 164, 1-[3-cyclopropyl-5-(2,2-dimethylmorpholin-4-yl)-2-fluorophenyl]-3-[(1-ethyl-1H-pyrazol-4-yl)methyl]-4-methyl-1,3-dihydro-2H-imidazol-2-one]	
97%	CCn1cc(Cn2c(C)cn(-c3cc(N4CCC(F)(F)CC4)cc(C4CC4)c3F)c2=O)cn1 [Example 165, 1-[3-cyclopropyl-5-(4,4-difluoropiperidin-1-yl)-2-fluorophenyl]-3-[(1-ethyl-1H-pyrazol-4-yl)methyl]-4-methyl-1,3-dihydro-2H-imidazol-2-one]	
